Measured values from paper PMC5064002, “Sintokamide A Is a Novel Antagonist of Androgen Receptor That Uniquely Binds Activation Function-1 in Its Amino-terminal Domain” (The Journal of Biological Chemistry, 2016).

What was measured:
[1] = system: LNCaP cells; parameters: method as in PMID 18834139; details: cited from earlier work
[2] = target: T1, progesterone receptor (PR)-β (Homo sapiens, UniProt P06401); assay: Steroid receptor specificity: PRE-luciferase reporter in LNCaP cells; assay type: cell-based; details: 10 μM compound, 10 nM 4-pregnene-3,20-dione, 48 h
T1 construct: expressed in transfected cells; host or cells: LNCaP
T1 sequence (P06401 1-933): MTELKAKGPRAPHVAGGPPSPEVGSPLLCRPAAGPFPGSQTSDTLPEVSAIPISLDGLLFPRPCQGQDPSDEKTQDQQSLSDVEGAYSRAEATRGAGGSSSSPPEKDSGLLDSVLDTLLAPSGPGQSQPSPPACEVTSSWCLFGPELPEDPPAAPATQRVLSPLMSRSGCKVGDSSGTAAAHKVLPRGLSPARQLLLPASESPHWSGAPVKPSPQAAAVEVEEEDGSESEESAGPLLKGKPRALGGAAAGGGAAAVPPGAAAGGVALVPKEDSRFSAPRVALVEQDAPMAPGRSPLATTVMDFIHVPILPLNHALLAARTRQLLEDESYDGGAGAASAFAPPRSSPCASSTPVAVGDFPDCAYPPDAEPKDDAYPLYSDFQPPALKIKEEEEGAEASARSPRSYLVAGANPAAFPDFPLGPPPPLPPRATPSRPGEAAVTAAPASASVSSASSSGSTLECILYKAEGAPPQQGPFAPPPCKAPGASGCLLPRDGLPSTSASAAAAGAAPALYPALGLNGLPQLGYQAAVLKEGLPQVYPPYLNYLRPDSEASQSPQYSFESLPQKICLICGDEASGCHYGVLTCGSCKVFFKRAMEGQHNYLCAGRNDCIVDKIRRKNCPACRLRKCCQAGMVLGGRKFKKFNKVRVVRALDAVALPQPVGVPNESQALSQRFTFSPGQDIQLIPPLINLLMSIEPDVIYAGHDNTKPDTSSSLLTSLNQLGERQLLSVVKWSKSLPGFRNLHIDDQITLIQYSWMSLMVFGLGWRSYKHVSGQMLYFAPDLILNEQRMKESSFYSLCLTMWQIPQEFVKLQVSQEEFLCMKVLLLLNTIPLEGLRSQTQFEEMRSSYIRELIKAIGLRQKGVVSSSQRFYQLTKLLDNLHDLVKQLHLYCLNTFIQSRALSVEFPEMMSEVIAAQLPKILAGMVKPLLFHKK
Description: (§1) LNCaP cells were transfected with the reporter plasmid PSA(6.1kb)-luciferase, PRE-luciferase, or GRE-luciferase and expression vector for progesterone receptor (PR)-β or glucocorticoid receptor (GR)-α in serum-free, phenol red-free medium using Lipofectin (Invitrogen). […] After 48 h of treatment, cells were lysed and analyzed for luciferase activities.
(§2) FIGURE 1. […] A, LNCaP cells were transfected with PSA (6.1 kb)-luciferase, PRE-luciferase, or GRE-luciferase reporters and expression vector for PRβ or GRα. […] Error bars represent mean percentage of vehicle activity ±S.E. of at least three independent experiments with triplicate wells. SINT1, 10 μM; […]; ***, p < 0.001. […]. Error bars represents mean ± S.E. of three technical replicates. […] DAPI staining indicates the location of the nucleus. Scale bars, 20 μm.

[3] = system: FL-AR- and AR-V7-regulated genes; assay: AR-FL- and AR-V7-regulated gene expression (quantitative RT-PCR) in LNCaP95 cells; assay type: cell-based
Description: At 48 h, total RNA was isolated using a PureLink RNA Mini kit (Invitrogen). For in vivo expression, tumors were harvested 3 days after last treatment, and RNA was extracted using TRIzol. Prior to cDNA generation, 4 μg of RNA were DNase-treated using DNase I (amplification grade; Sigma-Aldrich). DNase-treated RNA was split into two tubes (+RT and −RT), and cDNA was generated using the High Capacity RNA-cDNA kit (Applied Biosystems). Once complete, both reactions were adjusted to 5 ng/μl and stored at −20 °C. Approximately 5 ng of diluted cDNA and gene-specific primers were mixed with Platinum SYBR Green qPCR SuperMix-UDG with ROX (Invitrogen). The transcripts were measured using an ABI PRISM 7900 Sequence Detection System (Invitrogen). For all quantitative RT-PCR experiments, each sample was tested in triplicate, and gene expression levels were normalized to the reference gene RPL13A. Neuron-specific enolase (ENO2) (Gene ID, 2026; pair 1) and synaptophysin (SYP) (Gene ID, 6855; pair 2) human primers were from Sigma Life Science. All other primers were described previously ([4], [9]) and purchased from Integrated DNA Technologies.

[4] = target: T2, glucocorticoid receptor (GR)-α (Homo sapiens, UniProt P04150); assay: Steroid receptor specificity: GRE-luciferase reporter in LNCaP cells; assay type: cell-based; details: 10 μM compound, 10 nM dexamethasone, 48 h
T2 construct: expressed in transfected cells; host or cells: LNCaP
T2 sequence (P04150 1-777): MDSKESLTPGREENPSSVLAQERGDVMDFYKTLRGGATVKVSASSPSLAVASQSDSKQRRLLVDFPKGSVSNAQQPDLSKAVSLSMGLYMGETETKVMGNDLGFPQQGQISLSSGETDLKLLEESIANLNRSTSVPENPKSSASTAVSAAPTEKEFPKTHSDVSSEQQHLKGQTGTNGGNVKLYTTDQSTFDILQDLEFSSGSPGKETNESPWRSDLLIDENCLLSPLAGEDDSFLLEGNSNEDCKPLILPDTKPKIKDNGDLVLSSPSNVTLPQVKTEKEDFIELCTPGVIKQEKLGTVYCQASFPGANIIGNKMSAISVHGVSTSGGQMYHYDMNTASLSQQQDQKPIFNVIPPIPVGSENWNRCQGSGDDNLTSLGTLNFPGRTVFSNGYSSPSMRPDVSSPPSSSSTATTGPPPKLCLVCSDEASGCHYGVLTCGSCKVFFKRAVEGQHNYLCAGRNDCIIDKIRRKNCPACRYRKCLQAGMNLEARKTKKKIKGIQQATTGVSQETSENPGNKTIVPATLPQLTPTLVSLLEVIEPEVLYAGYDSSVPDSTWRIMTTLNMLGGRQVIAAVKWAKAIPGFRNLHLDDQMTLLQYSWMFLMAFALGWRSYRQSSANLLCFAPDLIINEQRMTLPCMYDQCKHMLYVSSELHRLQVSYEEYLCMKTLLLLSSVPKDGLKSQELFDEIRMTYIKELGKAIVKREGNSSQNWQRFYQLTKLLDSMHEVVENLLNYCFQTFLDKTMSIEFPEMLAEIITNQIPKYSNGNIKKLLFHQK
Description: as §1, §2

[5] = LNCaP95, 10 μM SINT1, 1 nM R1881 48 h

CCC(=O)NC(CC(C)C(Cl)(Cl)Cl)C(=O)N1C(=O)C=C(OC)C1CC(C)C(Cl)Cl (centres unmarked) [SINT1, Sintokamide A]
androgen-dependent growth of LNCaP cells [1]: block
PR transcriptional activity (PRE-luciferase) [2]: did not affect
androgen-induced transcript of FL-AR-regulated gene RHOU [3, 5]: exception
androgen-induced transcripts of FL-AR-regulated genes KLK3/PSA, KLK2, TMPRSS2, NKX3.1, FKBP5 and SLC1A1 [3, 5]: significantly repressed
levels of AR-V7 target gene transcripts cyclin A2, CDC20, UBE2C and CDK1 ([3]; LNCaP95, 10 μM SINT1, 48 h): significantly repressed
levels of AR-V7 transcript ([3]; LNCaP95, 10 μM SINT1, 48 h): no significant effect
levels of FL-AR mRNA ([3]; LNCaP95, 10 μM SINT1, 48 h, compared with vehicle control): did not lead to an increase
GR transcriptional activity (GRE-luciferase) [4]: did not affect
